Test results reported in patent US10844051B2, “Substituted oxazoles for the treatment of cancer” (THE ROYAL INSTITUTION FOR THE ADCANCEMENT OF …, priority 2015, dated 2020).

target: T1, human GATA2 (Homo sapiens, UniProt P23769); assay: GATA2-dependent reporter assay in IHH cells; type: cell-based; settings: GATA-Luc reporter, 48 h
T1 construct: expressed in transfected cells; host or cells: IHH
T1 sequence (P23769 1-480): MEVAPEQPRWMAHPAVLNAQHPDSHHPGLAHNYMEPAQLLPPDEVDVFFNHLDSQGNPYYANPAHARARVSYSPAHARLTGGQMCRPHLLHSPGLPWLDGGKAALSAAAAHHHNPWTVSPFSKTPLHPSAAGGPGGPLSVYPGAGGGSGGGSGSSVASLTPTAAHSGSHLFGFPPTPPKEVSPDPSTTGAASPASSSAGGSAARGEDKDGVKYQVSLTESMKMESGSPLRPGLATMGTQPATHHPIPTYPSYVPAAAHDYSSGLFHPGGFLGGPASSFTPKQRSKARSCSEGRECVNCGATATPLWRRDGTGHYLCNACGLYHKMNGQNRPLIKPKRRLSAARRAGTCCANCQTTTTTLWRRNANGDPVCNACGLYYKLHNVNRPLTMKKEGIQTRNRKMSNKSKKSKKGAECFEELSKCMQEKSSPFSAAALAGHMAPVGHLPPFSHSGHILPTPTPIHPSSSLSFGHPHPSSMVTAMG
Description: K7174 is a known GATA2 inhibitor. The IHH cells were transiently transfected with empty vector (for the NT) or human GATA2-expressing plasmid as well as pRL-TK (internal control) and GATA-Luc reporter plasmids. Cells were exposed to DMSO vehicle or compounds for 48 h. Experiments were in triplicate.

Row | GATA2 inhibition in GATA2-dependent reporter assay | SMILES
1 | GATA2 inhibitors | c1ccc(-c2nc(CCc3c[nH]c4ccccc34)oc2-c2ccccc2)cc1 [Compound 631]
2 | GATA2 inhibitors | c1ccc(-c2nc(CCCc3c[nH]c4ccccc34)oc2-c2ccccc2)cc1 [Compound 632]
3 | GATA2 inhibitors | COc1cccc(/C=C/c2nc(-c3ccccc3)c(-c3ccccc3)o2)c1 [Compound 684]
4 | GATA2 inhibitors | C(=C\c1cccs1)/c1nc(-c2ccccc2)c(-c2ccccc2)o1 [Compound 685]
5 | GATA2 inhibitors | COc1ccc(CC/C(=C/C(=O)N2CCC(O)(c3ccccc3)CC2)c2ccccc2)cc1 [Compound 858]
6 | GATA2 inhibitors | O=C(/C=C(/CCc1ccccc1)c1ccccc1)N1CCC(O)(c2ccccc2)CC1 [Compound 859]
7 | GATA2 inhibitors | O=C(/C=C(/CCc1cccc(F)c1)c1ccccc1)N1CCC(O)(c2ccccc2)CC1 [Compound 860]
8 | GATA2 inhibitors | O=C(/C=C(/CCc1cccc(C(F)(F)F)c1)c1ccccc1)N1CCC(O)(c2ccccc2)CC1 [Compound 868]
9 | GATA2 inhibitors | O=C(/C=C(/CCc1ccccc1)c1cccc(C(F)(F)F)c1)N1CCC(O)(c2ccccc2)CC1 [Compound 869]
10 | GATA2 inhibitors | Cc1ccc(/C(=C\C(=O)N2CCC(O)(c3ccccc3)CC2)CCc2ccccc2)cc1 [Compound 870]
11 | GATA2 inhibitors | COc1ccc(/C(=C\C(=O)N2CCC(O)(c3ccccc3)CC2)CCc2ccccc2)cc1 [Compound 871]
12 | GATA2 inhibitors | O=C(/C=C(/C=C/c1cccc(C(F)(F)F)c1)c1ccccc1)N1CCC(O)(c2ccccc2)CC1 [Compound 872]
13 | GATA2 inhibitors | O=C(C/C(=C\c1ccccc1)c1ccccc1)N1CCC(O)(c2ccccc2)CC1 [Compound 880]
14 | GATA2 inhibitors | O=C(/C=C(/Cc1ccccc1)c1ccccc1)N1CCC(O)(c2ccccc2)CC1 [Compound 881]
15 | GATA2 inhibitors | Cc1ccc(/C(=C\C(=O)N2CCC(O)(c3ccccc3)CC2)CCc2cccc(F)c2)cc1 [Compound 882]
16 | GATA2 inhibitors | COc1ccc(/C(=C\C(=O)N2CCC(O)(c3ccccc3)CC2)CCc2ccccc2)cc1OC [Compound 883]

The remaining lines, values behind:

Row | SMILES | GATA2 inhibition in GATA2-dependent reporter assay
17 | COc1cccc(-c2nc(Cc3c[nH]c4ccccc34)oc2-c2cccc(O)c2)c1 [Compound 719] | GATA2 inhibitors
18 | c1coc(-c2nc(CCCc3c[nH]c4ccccc34)oc2-c2ccco2)c1 [Compound 831] | GATA2 inhibitors
19 | Fc1cccc(-c2[nH]c(Cc3c[nH]c4ccccc34)nc2-c2ccco2)c1 [Compound 839] | GATA2 inhibitors
20 | O=C1Nc2ccccc2C1CCc1nc(-c2cccc(F)c2)c(-c2cccc(F)c2)o1 (centres unmarked) [Compound 866] | GATA2 inhibitors

target: T2, human STING (hSTING) (Homo sapiens, UniProt Q86WV6); assay: hSTING ISRE-luc reporter assay in 293T cells; type: cell-based; settings: 24 hours
T2 construct: expressed in transfected cells; host or cells: 293T
T2 sequence (Q86WV6 whole entry H232R): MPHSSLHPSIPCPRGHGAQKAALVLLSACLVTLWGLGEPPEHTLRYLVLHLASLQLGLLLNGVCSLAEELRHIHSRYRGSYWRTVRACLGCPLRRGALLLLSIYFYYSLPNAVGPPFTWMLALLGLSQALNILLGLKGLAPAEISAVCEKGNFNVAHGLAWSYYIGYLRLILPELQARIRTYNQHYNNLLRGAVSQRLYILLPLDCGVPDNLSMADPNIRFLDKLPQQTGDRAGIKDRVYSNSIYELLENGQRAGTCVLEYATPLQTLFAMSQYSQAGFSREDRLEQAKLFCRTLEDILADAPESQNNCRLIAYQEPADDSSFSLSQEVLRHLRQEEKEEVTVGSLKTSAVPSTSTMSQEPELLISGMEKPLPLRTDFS
Description: ISRE-luc (reporter), pRL-TK (internal control) and hSTING-expressing plasmids were transiently transfected into 293T cells. Cells were exposed to DMSO vehicle control or compounds for 24 hours. Experiments were done in triplicate.

Row | activation of hSTING in ISRE-luc reporter assay | SMILES
21 | activate hSTING | COc1ccc(-c2nc(Cc3c[nH]c4ccccc34)oc2-c2ccc(OC)cc2)cc1 [Compound 660]
22 | activate hSTING | Fc1ccc(-c2nc(CCCc3c[nH]c4ccccc34)oc2-c2ccc(F)cc2)cc1 [Compound 671]
23 | activate human STING (hSTING) | FC(F)(F)c1ccccc1-c1nc(CCCc2c[nH]c3ccccc23)oc1-c1ccccc1C(F)(F)F [Compound 677]
24 | activate hSTING | FC(F)(F)c1cc(CCc2nc(-c3ccccc3)c(-c3ccccc3)o2)cc(C(F)(F)F)c1 [Compound 689]
25 | activate human STING (hSTING) | Clc1cccc(-c2nc(CCCc3c[nH]c4ccccc34)oc2-c2cccc(Cl)c2)c1 [Compound 762]
26 | activate hSTING | c1coc(-c2nc(CCCc3c[nH]c4ccccc34)oc2-c2ccco2)c1 [Compound 831]
27 | activate hSTING | COc1ccccc1-c1nc(CCCc2c[nH]c3ccccc23)oc1-c1ccccc1OC [Compound 916]
28 | activate hSTING | COc1ccccc1-c1nc(CCc2c[nH]c3ccccc23)oc1-c1ccccc1OC [Compound 917]
29 | activate hSTING | FC(F)(F)c1ccc(-c2nc(CCc3c[nH]c4ccccc34)oc2-c2ccc(C(F)(F)F)cc2)cc1 [Compound 918]
30 | activate hSTING | c1coc(-c2nc(CCc3c[nH]c4ccccc34)oc2-c2ccco2)c1 [Compound 919]
31 | activate hSTING | FC(F)(F)c1ccccc1-c1nc(CCc2c[nH]c3ccccc23)oc1-c1ccccc1C(F)(F)F [Compound 920]

system: hSTING and/or mSTING; assay: hSTING- or mSTING-dependent ISRE-luc reporter assay in 293T cells; type: cell-based; settings: 24 hours
Description: ISRE-luc (reporter), pRL-TK (internal control) and hSTING- or mSTING-expressing plasmids were transiently transfected into 293T cells. Cells were exposed to DMSO vehicle control or compounds for 24 hours. Experiments were done in triplicate.

Row | SMILES | activation of hSTING and/or mSTING in ISRE-luc reporter assay
32 | N#CCN(CCc1c[nH]c2ccccc12)Cc1nc(-c2ccccc2)c(-c2ccccc2)o1 [Compound 1188] | activate hSTING and/or mSTING
33 | c1ccc(-c2nc(CN3CCN(Cc4ccccn4)CC3)oc2-c2ccccc2)cc1 [Compound 1285] | activate hSTING and/or mSTING
34 | Fc1cccc(CN2CCN(Cc3nc(-c4ccccc4)c(-c4ccccc4)o3)CC2)c1 [Compound 1286] | activate hSTING and/or mSTING
35 | COc1ccc(CN2CCN(Cc3nc(-c4ccccc4)c(-c4ccccc4)o3)CC2)cc1 [Compound 1287] | activate hSTING and/or mSTING
36 | Fc1ccc(CN2CCN(Cc3nc(-c4ccccc4)c(-c4ccccc4)o3)CC2)cc1 [Compound 1288] | activate hSTING and/or mSTING
37 | COc1cccc(CN2CCN(Cc3nc(-c4ccccc4)c(-c4ccccc4)o3)CC2)c1 [Compound 1289] | activate hSTING and/or mSTING
38 | Fc1ccccc1CN1CCN(Cc2nc(-c3ccccc3)c(-c3ccccc3)o2)CC1 [Compound 1357] | activate hSTING and/or mSTING
39 | N#Cc1cccc(CN2CCN(Cc3nc(-c4ccccc4)c(-c4ccccc4)o3)CC2)c1 [Compound 1360] | activate hSTING and/or mSTING
40 | N#Cc1ccc(CN2CCN(Cc3nc(-c4ccccc4)c(-c4ccccc4)o3)CC2)cc1 [Compound 1361] | activate hSTING and/or mSTING
41 | N#Cc1ccccc1CN1CCN(Cc2nc(-c3ccccc3)c(-c3ccccc3)o2)CC1 [Compound 1364] | activate hSTING and/or mSTING
42 | Cc1cccnc1CN1CCN(Cc2nc(-c3ccccc3)c(-c3ccccc3)o2)CC1 [Compound 1366] | activate hSTING and/or mSTING
43 | c1ccc(-c2nc(CNCCc3c[nH]c4ccccc34)[nH]c2-c2ccccc2)cc1 [Compound 1369] | activate hSTING and/or mSTING
44 | COCCN1CCN(Cc2nc(-c3ccccc3)c(-c3ccccc3)o2)CC1 [Compound 1370] | activate hSTING and/or mSTING
45 | C=CCN(CCc1c[nH]c2ccccc12)Cc1nc(-c2ccccc2)c(-c2ccccc2)o1 [Compound 1372] | activate hSTING and/or mSTING
46 | O=[N+]([O-])c1ccccc1S(=O)(=O)N(CCc1c[nH]c2ccccc12)Cc1nc(-c2ccccc2)c(-c2ccccc2)[nH]1 [Compound 1373] | activate hSTING and/or mSTING

same assay, conditions: 24 hours, 20 μM

Row | SMILES | activation of hSTING and/or mSTING in ISRE-luc reporter assay
47 | Oc1cccc(N2CCN(Cc3nc(-c4ccccc4)c(-c4ccccc4)o3)CC2)c1 [Compound 1182] | activate hSTING and/or mSTING
48 | Oc1ccccc1N1CCN(Cc2nc(-c3cccc(F)c3)c(-c3cccc(F)c3)[nH]2)CC1 [Compound 1183] | activate hSTING and/or mSTING
49 | Oc1ccccc1N1CCN(Cc2nc(-c3ccccc3)c(-c3ccccc3)o2)CC1 [Compound 1184] | activate hSTING and/or mSTING
50 | c1ccc(-c2nc(CN3CCN(c4ccccn4)CC3)oc2-c2ccccc2)cc1 [Compound 1227] | activate hSTING and/or mSTING
